Where “and” joins values, the source holds several entries; their conditions need not be identical. Equal values may be shown once. Read-outs that look alike come from different tables or passages of the source.
How the values were obtained:
[1] = Phase I three-way crossover study: safety assessments / adverse events (NCI Common Toxicity Criteria)
Description: If hypotension occurred, the subject was to receive a rapid infusion of 500 mL normal saline and was to be kept supine or in the Trendelenburg position until blood pressure returned to baseline. During this time, blood pressure was monitored every 3 minutes.
All subjects who had received at least one dose of protocol therapy were considered evaluable for safety. […] Toxicity was based on National Cancer Institute (NCI) Common Toxicity Criteria.
Because this was a crossover study to be performed on three successive days, toxicities were assigned to the route of administration on the day the toxicity occurred. A full nonparametric crossover model (likelihood of ratio test) was used to assess toxicities which corrected for period and sequence effects. A PROC CATMOD of SAS@ was used for this analysis.

[2] = tested on: radiation-induced mucositis; test: Radiation-induced mucositis model, inferior lip of mice (Parkins et al.): body weight, mucosal erythema and edema scores; conditions: for Erythema (score) / Oedema (score): individual mice and Mean
[3] = tested on: radiation-induced xerostomia; conditions: IV Amifostine + RT, cited from earlier work
MDS = test: Subcutaneous amifostine in MDS patients: hematologic responses and adverse effects; assay type: in vivo, human
From the text: All patients in the study had MDS and were diagnosed as having one of the following subtypes: refractory anemia, refractory anemia with ring sideroblasts, refractory anemia with excess blasts or refractory anemia with excess blasts in transformation. In addition, the patients had thrombocytopenia (platelets <100,000/μl), neutropenia (ANC or absolute neutrophil count<1500/μl) or a hemoglobin untransfused <10 g/dl and/or were transfusion-dependent as defined by requiring at least 4 units of RBC in the 10 weeks prior to entry.
(§1) Blood pressure was monitored before treatment and after the first dose at 30 minute intervals for up to 90 minutes. […] At least three patients were treated with each dose. […] Hematologic responses to treatment were evaluated by measuring neutrophil count (ANC), platelet count, erythroid response including hemoglobin levels and reticulocyte count, and in vitro colony formation.

[4] = human, in vivo
Description: All subjects were sequestered at the study site from the evening before the administration of the first dose of study drug until the final whole blood sample was obtained.
Blood samples (5 to 7 mL each) were collected either by venipuncture or indwelling venous catheter (IVC) heparin lock. If IVC was used, it was inserted in the arm opposite the infusion site. […] For either line, the first 3 to 5 cc of blood were discarded (void volume) prior to blood collection.
To prevent further oxidation of WR-1065, PCA/EDTA was added to the samples prior to centrifugation. Because PCA/EDTA ruptures the cellular content of the blood, the samples were centrifuged for a longer period of time to prevent contamination/metabolism of the active metabolite. Consequently, only the clear supernatant (serum) was used for analysis of WR-1065. In contrast, no PCA/EDTA was added to the blood samples designated for analysis of the parent drug; therefore, plasma samples were prepared for analysis of the parent drug.
WINNONLIN, the WINDOWS version of PCNONLIN, was used for the determination of pharmacokinetic parameters for each subject following each route of administration. Non-compartmental modelling of the data was performed.
AUCs were calculated using extrapolation according to a straightline from the last non-zero point.
The AUCs were then analyzed using an analysis of variance (ANOVA) model with route, period and subject as variables. Sequence was not included in the model as this variable was uniquely determined by route and period. The confidence interval on the ratio of the subcutaneous or oral route to the intravenous route was calculated using the mean square error from the entire ANOVA model.

[5] = cited from earlier work
[6] = tested on: Bone marrow progenitor cells; test: In vitro colony formation (CFU-GEMM, BFU-E, CFU-GM) of bone marrow progenitor cells from treated MDS patients, methylcellulose assays; assay type: cell-based, human; conditions: bone marrow progenitor cells from MDS patients after s.c. amifostine
Description: as §1
Bone marrow progenitor cells were recovered from the treated patients and assayed for their ability to form CFU-GEMM, BFU-E and CFU-GM colonies in standard methylcellulose assays.

mucositis = test: Rat RT model: mucosal radioprotection by IV or SC amifostine at various times before 15.3 Gy head and neck irradiation (mucositis score); assay type: in vivo; conditions: rats, 200 mg/kg (1200 mg/m^2), given up to 4 hours prior to radiation therapy (15.3 Gy)
Description: A rat RT model was used to examine the protective effects of amifostine following IV as well as subcutaneous (SC) administration, and to investigate the length of time between amifostine administration and RT. In these experiments, rats were given 200 mg/kg (1200 mg/m^2) of amifostine IV or SC, and their head and neck regions exposed to 15.3 Gy of gamma irradiation at various times following amifostine administration. For 10 days after treatment, the rats were weighed and the oral cavities of the rats were examined for signs of mucositis. Mucosal erythema and mucosal edema were scored according to 0-5 and 0-2 scales, respectively, with the scores added to indicate overall mucositis.

[7] = tested on: radiation-induced xerostomia
Description: In the phase II study all patients were undergoing radiation therapy for histologically confirmed squamous cell carcinoma of the head and neck region. Patients were allowed to enter the study following surgery with curative intent as soon as the wound has healed but no later than 12 weeks post operatively.
Blood pressure and pulse were obtained prior to subcutaneous administration and repeated 10 minutes following administration. An IV was available to treat hypotension if it occurred. Patients received full supportive care including antiemetics, antibiotics, transfusions of blood and blood products, and the like when needed. Prophylactic antiemetics were not administered. If patients experienced nausea and vomiting they were administered either prochlorperazine, 10 mg PO, 30 minutes prior to therapy, repeating every 4 to 6 hours following therapy as needed or ondansetron, 8 mg PO, 30 minutes prior to therapy, repeating every 4 hours following therapy as needed.
Radiation therapy was provided with linear accelerators with appropriate photon and electron boosting to the nodes or Cobalt 60. The appropriate photon energy was based on optimizing the radiation therapy dose distribution within the target volume and minimizing dose to normal tissue. Patients were reproducibly mobilized and radio-opaque markers were used to delineate the extent of nodal disease and, where possible, the primary tumor. All fields were treated once daily at 1.8-2.0 Gy per fraction, five days per week to a total dose of:
Xerostomia was graded in each subject according to the RTOG criteria.

[8] = Intravenous 200 mg/m^2, N = 12, table cells give subject numbers
[9] = Intravenous 200 mg/m^2, N = 12, table cells give subject numbers, listed as amifostine
[10] = Oral 500 mg, N = 12, table cells give subject numbers
[11] = Amifostine (l.p.) at 200 mg/kg + Irradiation (16.5 Gy), day 6 after treatment, 200 mg/kg
[12] = Amifostine (l.p.) at 200 mg/kg + Irradiation (16.5 Gy), day 7 after treatment, 200 mg/kg
[13] = Amifostine (l.p.) at 200 mg/kg + Irradiation (16.5 Gy), day 13 after treatment, 200 mg/kg
[14] = Amifostine (l.p.) at 200 mg/kg + Irradiation (16.5 Gy), day 14 after treatment, 200 mg/kg
[15] = Amifostine (l.p.) at 400 mg/kg + Irradiation (16.5 Gy), day 13 after treatment, 400 mg/kg
[16] = Amifostine (l.p.) at 400 mg/kg + Irradiation (16.5 Gy), day 14 after treatment, 400 mg/kg
[17] = Amifostine (s.c.) at 200 mg/kg + Irradiation (16.5 Gy), day 9 after treatment, 200 mg/kg
[18] = Amifostine (s.c.) at 400 mg/kg + Irradiation (16.5 Gy), day 14 after treatment, 400 mg/kg
[19] = MDS patients, s.c. 500 mg once/day, 17 evaluable
[20] = intravenous, cancer patients, plasma
[21] = SC amifostine, head and neck cancer patients

NCCCNCCSP(=O)(O)O [Amifostine, S-2-(3-aminopropylamino)ethyl dihydrogen phosphorothioate]
Headache: subjects who reported the adverse event [1, 8]: 1008 | Hypotension: subjects who reported the adverse event [1, 8]: 1003 | Lightheadedness: subjects who reported the adverse event [1, 8]: 1003 | Somnolence: subjects who reported the adverse event [1, 8]: 1008 | Vomiting: subjects who reported the adverse event [1, 8]: 1008 | Hypotension: subjects who reported the adverse event [1, 9]: one subject | Nausea: subjects who reported the adverse event [1, 9]: five subjects | Vomiting: subjects who reported the adverse event [1, 9]: one subject | Hypotension: subjects who reported the adverse event [1, 10]: 1003 | Lightheadedness: subjects who reported the adverse event [1, 10]: 1003 | Hypotension: subjects who reported the adverse event ([1]; Oral 500 mg, N = 12, table cells give subject numbers, listed as amifostine): one subject | incidence of hypotension ([1]; Subcutaneous 500 mg, N = 12): no incidence | Nausea: subjects who reported the adverse event ([1]; Subcutaneous 500 mg, N = 12, table cells give subject numbers): 1002 | Nausea: subjects who reported the adverse event ([1]; Subcutaneous 500 mg, N = 12, table cells give subject numbers, listed as amifostine): one subject | Grade 2 or higher laboratory toxicity (NCI Common Toxicity Criteria) ([1]; after last dose, 12 subjects): none of the subjects | serum creatinine value, Subject 1010 ([1]; after last dose, baseline 0.90 mg/dL, reference range 0.70 to 1.40 mg/dL): 0.60 mg/dL | changes in physical examination, weight and vital signs ([1]; after the last dose of amifostine): No remarkable changes | severity of adverse events ([1]; all three routes): mild in severity, transient | discontinuation due to adverse events ([1]; all three routes, 12 subjects): No subject discontinued | subjects who reported adverse events ([1]; intravenous amifostine, 12 subjects): Five subjects | subjects who reported adverse events ([1]; oral amifostine, 12 subjects): one subject | tolerability ([1]; regardless of route of administration): well tolerated | subjects who reported adverse events ([1]; subcutaneous amifostine, 12 subjects): one subject | Erythema (score) [2, 11]: 0.5 and 0 | Oedema (score) [2, 11]: 1 and 0 and 0.5 | Erythema (score) [2, 12]: 0.5 and 0 | Oedema (score) [2, 12]: 1 and 0 and 0.5 | Oedema (score) ([2]; Amifostine (l.p.) at 200 mg/kg + Irradiation (16.5 Gy), day 12 after treatment, 200 mg/kg): 2 and 1 and 0.5 | Erythema (score) [2, 13]: 0.5 and 2 and 1 | Oedema (score) [2, 13]: 0.5 and 2 and 1 | Erythema (score) [2, 14]: 0.5 and 2 and 1 and 0 | Oedema (score) [2, 14]: 0.5 and 2 and 1 and 0 | Oedema (score) ([2]; Amifostine (l.p.) at 400 mg/kg + Irradiation (16.5 Gy), day 6 after treatment, 400 mg/kg): 0.5 and 0 | Oedema (score) ([2]; Amifostine (l.p.) at 400 mg/kg + Irradiation (16.5 Gy), day 7 after treatment, 400 mg/kg): 0.5 and 0 | Erythema (score) ([2]; Amifostine (l.p.) at 400 mg/kg + Irradiation (16.5 Gy), day 12 after treatment, 400 mg/kg): 3 and 1 and 2 | Erythema (score) [2, 15]: 0 and 0.5 | Oedema (score) [2, 15]: 0.5 and 0 | Erythema (score) [2, 16]: 0 and 0.5 | Oedema (score) [2, 16]: 0.5 and 0 | Erythema (score) ([2]; Amifostine (s.c.) at 200 mg/kg + Irradiation (16.5 Gy), day 7 after treatment, 200 mg/kg): 0 and 0.5 | Erythema (score) [2, 17]: 0.5 and 1 and 3 | Oedema (score) [2, 17]: 0.5 and 1 and 2 | Erythema (score) ([2]; Amifostine (s.c.) at 200 mg/kg + Irradiation (16.5 Gy), day 13 after treatment, 200 mg/kg): 1 and 0.5 and 2 | Oedema (score) ([2]; Amifostine (s.c.) at 200 mg/kg + Irradiation (16.5 Gy), day 14 after treatment, 200 mg/kg): 0.5 and 1 and 0 | Oedema (score) ([2]; Amifostine (s.c.) at 400 mg/kg + Irradiation (16.5 Gy), day 6 after treatment, 400 mg/kg): 1 and 0.5 and 0 | Oedema (score) ([2]; Amifostine (s.c.) at 400 mg/kg + Irradiation (16.5 Gy), day 7 after treatment, 400 mg/kg): 0.5 and 0 | Erythema (score) ([2]; Amifostine (s.c.) at 400 mg/kg + Irradiation (16.5 Gy), day 13 after treatment, 400 mg/kg): 1 and 0 and 0.5 | Erythema (score) [2, 18]: 1 and 0 and 0.5 | Oedema (score) [2, 18]: 1 and 0 and 0.5 | mucosal edema scores as compared to saline plus irradiation ([2]; both injection methods (i.p., s.c.)): decreased | average erythema score as compared to saline plus irradiation ([2]; i.p and s.c. administration): decreased | reduction in body weight after irradiation ([2]; i.p. or s.c. injection of amifostine, irradiated mice): prevented | effect of increasing the dose from 200 mg/kg to 400 mg/kg ([2]; irradiated mice): minimal additional benefits | efficacy at the time points of maximal adverse effects (day 9 body weight, day 12 erythema and edema) ([2]; subcutaneous, 200 mg/kg): highest efficacy | ≧Grade 2 acute xerostomia Incidence, All patients ([3]; 200 mg/m^2 3 minute infusion 15 to 30 minutes before RT, N 148): 51% | ≧Grade 2 acute xerostomia Incidence, Patients receiving ≧60 Gy RT ([3]; 200 mg/m^2): 51% | ≧Grade 2 acute xerostomia, Median cumulative RT dose to onset ([3]; 200 mg/m^2): 60 Gy | ≧Grade 2 acute xerostomia, Median time to onset ([3]; 200 mg/m^2): 45 days | Platelet response, patients with >50,000/μl: Responders (number) (MDS; 3 evaluable): 3 | Platelet response, patients with >50,000/μl: Responders (percent) (MDS; 3 evaluable): 100% | BM Blasts ↑ (RAEB): patients (number; RAEB-t, AML) (MDS; 5 evaluable): 2 (RAEB-t, AML) | Platelet response, patients with <50,000/μl: Responders (number) (MDS; 6 evaluable): 0 | Hemoglobin >1.5 g/dl ↑: Responders (number) (MDS; 7 evaluable): 1 | Ring Sideroblast ↓: Responders (number) (MDS; 7 evaluable): 3 | ANC response, patients with ANC < 1000: Responders (number) (MDS; 8 evaluable): 3 | ANC response, patients with ANC < 1000: Responders (percent) (MDS; 8 evaluable): 38.5% | ANC response, patients with ANC > 1000: Responders (number) (MDS; 9 evaluable): 2 | ANC response, patients with ANC > 1000: Responders (percent) (MDS; 9 evaluable): 22% | Platelets ≧ 50% ↑: Responders (number) (MDS; 9 evaluable): 3 | Platelets ≧ 50% ↑: Responders (percent) (MDS; 9 evaluable): 33% | RBC Transfusion (≦50% ↓): Responders (number) (MDS; 13 evaluable): 0 | Retic count ≧ 50% ↑: Responders (number) (MDS; 14 evaluable): 10 | Retic count ≧ 50% ↑: Responders (percent) (MDS; 14 evaluable): 71% | ANC ≧ 50% ↑: Responders (number) (MDS; [19]): 5 | ANC ≧ 50% ↑: Responders (percent) (MDS; [19]): 29% | fatigue (grade I/II): patients (MDS; MDS patients, s.c. amifostine): four patients | local reaction (grade III): patients (MDS; MDS patients, s.c. amifostine): one patient | metallic taste (grade I/II): patients (MDS; MDS patients, s.c. amifostine): one patient | nausea (grade I/II): patients (MDS; MDS patients, s.c. amifostine): one patient | rash (grade I/II): patients (MDS; MDS patients, s.c. amifostine): six patients | vomiting (grade I/II): patients (MDS; MDS patients, s.c. amifostine): one patient | time after administration at which concentration dropped below 10 μM, amifostine (parent drug plus active metabolite) ([4]; iv): 45 min | time after administration at which concentration dropped below 10 μM, amifostine (parent drug) ([4]; iv): approximately 30 minutes | time after administration at which concentration dropped below 1.0 μM, amifostine (parent drug plus active metabolite) ([4]; po): 10 to 13 min | time after administration at which concentration fell below 10 μM, amifostine (parent drug plus active metabolite) ([4]; sc): approximately 50 minutes | time after administration at which concentration fell below 10 μM, amifostine (parent drug) ([4]; sc): approximately 45 minutes | peak levels (maximum whole blood concentration) ([4]; male, iv): about 100 μM | AUC of Combined (parent drug and active metabolite), 500 mg Oral (PO) ([4]; male, po): 0 µM·min | maximum blood levels ([4]; male, sc): about 12 μM | time to maximum and sustained whole blood concentration ([4]; male, sc): 15 to 45 min | amifostine remaining in the plasma ([5]; 6 minutes after intravenous administration): Less than 10% | distribution half-life [5, 20]: less than 1 minute | elimination half-life [5, 20]: approximately 9 minutes | formation of CFU-GEMM, BFU-E and CFU-GM colonies [6]: produced bone marrow colonies | radioprotection (mucositis) of SC versus IV administration (mucositis): comparable to IV administration | rate of acute xerostomia with subcutaneous versus IV amifostine ([7]; SC amifostine + RT): comparable rate | Grade 3 hypotension [7, 21]: no reports | Grade 3 nausea/vomiting [7, 21]: no reports

NCCCNCCS [WR-1065, 2-[3-aminopropylamino]ethanethiol]
absolute bioavailability of the active metabolite [4]: 0.53 | time after administration at which concentration fell below 5 μM, WR-1065 ([4]; iv): approximately 45 minutes | time after administration at which concentration fell below 5 μM, WR-1065 ([4]; sc): approximately 60 minutes | peak levels (maximum whole blood concentration) ([4]; male, iv): about 23 μM | maximum blood levels ([4]; male, sc): ~4 µM | time to maximum and sustained whole blood concentration ([4]; male, sc): 15 to 45 min

Reference: patent publication US6573253B2, “Methods for the administration of amifostine and related compounds” (MedImmune Oncology Inc., priority 1997, dated 2003)
